Reference: ChEMBL document CHEMBL1157348, “The alkaloid conessine and analogues as potent histamine H3 receptor antagonists” (J Med Chem, 2008)

How the values were obtained:
Histamine H3 receptor [1] = molecular target: Histamine H3 receptor (Cavia porcellus, UniProt Q9JI35); test: Antagonist activity at histamine H3 receptor in guinea pig ileum assessed as inhibition of (R)-alpha-methylhistamine-induced response
Histamine H3 receptor [2] = molecular target: T1, Histamine H3 receptor (Rattus norvegicus, UniProt Q9QYN8); test: Displacement of [3H]NAMH from rat full length histamine H3 receptor expressed in rat C6 cells; assay type: cell-based; conditions: read-out: Ki
T1 sequence (Q9QYN8 whole entry): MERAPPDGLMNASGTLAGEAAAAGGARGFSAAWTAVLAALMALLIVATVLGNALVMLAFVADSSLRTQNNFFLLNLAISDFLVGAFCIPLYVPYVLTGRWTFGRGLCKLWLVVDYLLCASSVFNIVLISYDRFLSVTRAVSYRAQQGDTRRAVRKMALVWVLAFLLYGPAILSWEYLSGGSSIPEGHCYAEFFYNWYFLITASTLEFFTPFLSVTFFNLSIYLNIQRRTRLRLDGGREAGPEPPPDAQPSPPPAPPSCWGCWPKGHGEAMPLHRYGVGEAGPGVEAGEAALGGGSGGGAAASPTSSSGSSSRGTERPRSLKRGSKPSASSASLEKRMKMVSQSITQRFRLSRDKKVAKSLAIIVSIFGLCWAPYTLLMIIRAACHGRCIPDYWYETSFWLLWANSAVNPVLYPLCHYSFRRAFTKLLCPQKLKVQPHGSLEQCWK

Histamine H3 receptor [3] = molecular target: Histamine H3 receptor (Homo sapiens, UniProt Q9Y5N1); test: Displacement of [3H]NAMH from human full length histamine H3 receptor expressed in rat C6 cells; assay type: cell-based
Histamine H3 receptor (Homo sapiens, UniProt Q9Y5N1), sequence (Q9Y5N1 whole entry): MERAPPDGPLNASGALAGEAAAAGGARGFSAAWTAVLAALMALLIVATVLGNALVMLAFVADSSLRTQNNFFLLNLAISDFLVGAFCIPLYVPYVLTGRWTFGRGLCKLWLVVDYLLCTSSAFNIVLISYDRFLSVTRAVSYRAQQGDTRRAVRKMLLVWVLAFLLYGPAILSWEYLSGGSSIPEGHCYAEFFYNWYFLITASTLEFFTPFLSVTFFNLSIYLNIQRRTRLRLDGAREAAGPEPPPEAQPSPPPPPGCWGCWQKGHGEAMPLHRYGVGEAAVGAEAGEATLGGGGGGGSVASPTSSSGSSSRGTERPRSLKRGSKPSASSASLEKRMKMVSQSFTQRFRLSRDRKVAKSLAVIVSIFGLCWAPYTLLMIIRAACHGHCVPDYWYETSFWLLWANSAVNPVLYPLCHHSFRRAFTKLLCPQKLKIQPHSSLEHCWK

Histamine H3 receptor [4] = molecular target: T1, Histamine H3 receptor; test: Displacement of [3H]NAMH from histamine H3 receptor in rat cortex; conditions: read-out: Ki
[5] = Oral bioavailability in rat; assay type: ADME, organism-based; conditions: in vivo

Histamine H3 receptor (Cavia porcellus, UniProt Q9JI35), sequence (Q9JI35 whole entry): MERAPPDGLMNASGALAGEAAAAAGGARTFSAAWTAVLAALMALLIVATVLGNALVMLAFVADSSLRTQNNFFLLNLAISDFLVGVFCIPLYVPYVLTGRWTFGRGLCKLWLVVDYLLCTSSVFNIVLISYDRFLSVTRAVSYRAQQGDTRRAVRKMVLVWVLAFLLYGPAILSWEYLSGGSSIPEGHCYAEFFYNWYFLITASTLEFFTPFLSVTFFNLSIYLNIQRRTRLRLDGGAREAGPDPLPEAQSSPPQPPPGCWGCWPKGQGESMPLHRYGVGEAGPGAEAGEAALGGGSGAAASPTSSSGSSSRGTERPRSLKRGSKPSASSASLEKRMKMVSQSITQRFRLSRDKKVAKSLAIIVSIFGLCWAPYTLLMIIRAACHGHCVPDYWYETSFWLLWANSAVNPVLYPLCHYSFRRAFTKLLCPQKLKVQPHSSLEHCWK

Compound	IC50 (Histamine H3 receptor [1])	Ki (Histamine H3 receptor [2])	Ki (Histamine H3 receptor [3])	Ki (Histamine H3 receptor [4])	bioavailability [5]
CN(C)CCCOc1c(Br)cc(CCN(C)C)cc1Br [APLYSAMINE]	500 nM	–	–	–	–
CN1C[C@]23CC[C@H]4[C@@H](CC=C5C[C@@H](N(C)C)CC[C@@]54C)[C@@H]2CC[C@@H]3C1=O	–	1000 nM	543 nM	–	–
C[C@H]1[C@H]2CC[C@H]3[C@@H]4CC=C5C[C@@H](N(C)c6ccc(C#N)cc6)CC[C@]5(C)[C@H]4CC[C@]23CN1C	–	–	1.66 nM	24 nM	–
C[C@H]1[C@H]2CC[C@H]3[C@@H]4CC=C5C[C@@H](N(C)C(=O)OCC(Cl)(Cl)Cl)CC[C@]5(C)[C@H]4CC[C@]23CN1C	–	7.91 nM	19.7 nM	–	–
CC(=O)N[C@@H](CC(C)C)C(=O)N(C)[C@H]1CC[C@@]2(C)C(=CC[C@H]3[C@@H]4CC[C@@H]5[C@H](C)N(C)C[C@@]54CC[C@@H]32)C1	–	–	1.62 nM	6.76 nM	–
CC[C@H](C)[C@H](N)C(=O)N(C)[C@H]1CC[C@@]2(C)C(=CC[C@H]3[C@@H]4CC[C@@H]5[C@H](C)N(C)C[C@@]54CC[C@@H]32)C1	–	–	0.22 nM	0.49 nM	–
C[C@H]1[C@H]2CC[C@H]3[C@@H]4CC=C5C[C@@H](N(C)C(=O)c6ccc(C#N)cc6)CC[C@]5(C)[C@H]4CC[C@]23CN1C	–	–	39.8 nM	195 nM	–
CC(=O)N[C@@H](Cc1ccccc1)C(=O)N(C)[C@H]1CC[C@@]2(C)C(=CC[C@H]3[C@@H]4CC[C@@H]5[C@H](C)N(C)C[C@@]54CC[C@@H]32)C1	–	–	1.15 nM	2.29 nM	–
C[C@H]1[C@H]2CC[C@H]3[C@@H]4CC=C5C[C@@H](N(C)C(=O)Cc6cccs6)CC[C@]5(C)[C@H]4CC[C@]23CN1C	–	–	3.31 nM	11.2 nM	4.5%
C[C@H]1[C@H]2CC[C@H]3[C@@H]4CC=C5C[C@@H](N(C)C(=O)C6CC6)CC[C@]5(C)[C@H]4CC[C@]23CN1C	–	–	60.3 nM	380 nM	–
C[C@H]1[C@H]2CC[C@H]3[C@@H]4CC=C5C[C@@H](N(C)C(=O)N(C)C)CC[C@]5(C)[C@H]4CC[C@]23CN1C	–	–	50.1 nM	295 nM	–
CC[C@@H](C)[C@@H](N)C(=O)N(C)[C@H]1CC[C@@]2(C)C(=CC[C@H]3[C@@H]4CC[C@@H]5[C@H](C)N(C)C[C@@]54CC[C@@H]32)C1	–	–	0.37 nM	2.88 nM	–
C[C@H]1[C@H]2CC[C@H]3[C@@H]4CC=C5C[C@@H](N(C)C(=O)c6ccncc6)CC[C@]5(C)[C@H]4CC[C@]23CN1C	–	–	16.2 nM	155 nM	–
